Results from paper PMC10305119, “Analogs of 6-Bromohypaphorine with Increased Agonist Potency for α7 Nicotinic Receptor as Anti-Inflammatory Analgesic Agents” (Marine Drugs, 2023).
“Also recorded” adds a separate entry of the source.

Assays:
STAT3 phosphorylation = STAT3 phosphorylation in LPS-stimulated macrophages (flow cytometry); assay type: cell-based, human; settings: compound 1 h, then LPS 3 h; control MFI 49
Method: (§1) To gain an insight into the signaling induced by the tested compounds, ERK1/2 and STAT3 phosphorylation was checked. Macrophages were treated with tested compounds for 1 h, after which they were stimulated with LPS for 3 h.
(§2) Peripheral blood mononuclear cells (PBMCs) were separated by Ficoll-Paque PLUS density gradient centrifugation. PBMCs were placed in a sterile Petri dish and incubated at 37 °C for 2 h. Unattached cells were then removed by washing with PBS and substituted with fresh complete RPMI 1640 medium. To generate monocyte-derived macrophages (MDMs), 50 ng/mL GM-CSF was added to the isolated monocytes and cultured for 6 days to differentiate them into non-polarized MDMs.
Figure 5 Effects of the analyzed compounds on signaling pathways in LPS-stimulated macrophages. Cells were treated with PNU 282987, hypaphorine, or 6-iodohypaphorine methyl ester (6ID) for 1 h and then stimulated with LPS for 3 h. Phosphorylated ERK1/2 and STAT3 were quantified by flow cytometry with specific antibodies. […] (c): Representative histogram showing the increase in ERK 1/2 phosphorylation in comparison to control. The numbers in the histograms show the MFI ± SD (n = 3). MFI—geometrical mean fluorescence intensity. One-way ANOVA tests with Tukey post hoc test: * p ˂ 0.05, ** p ˂ 0.01, *** p < 0.001 in comparison with untreated cells. TEXT PRINTED IN THE PICTURE: (c) Control: PE-ERK 1/2 Phospho: 193.7±1.5 | (c) PNU 282987: PE-ERK 1/2 Phospho: 251.3±13.7 | (c) Hy: PE-ERK 1/2 Phospho: 246.0±15.7 | (c) 6ID: PE-ERK 1/2 Phospho: 273.7±8.1 DOUBTS OF THE COPYIST ABOUT THIS PICTURE: Panel c: no measure or unit is printed beside the numbers; the x-axis label "PE-ERK 1/2 Phospho" is used as the measure / "Control" is the untreated reference rather than a substance; it is included because a value is printed with it

[1] = test system: CD11c expression on macrophages; assay: Flow cytometry of macrophage membrane protein CD11c; assay type: cell-based, human; settings: 48 h
Method: The selective agonist PNU 282,987 increased CD11b and CD11c protein expression by an average of 10% and 26%, respectively (Figure 4a,b).
as §2
(§3) Figure 4 The effects of PNU 282987, hypaphorine, and D-6-iodohypaphorine methyl ester (6ID) on macrophage membrane proteins expression. Cells were treated with these compounds for 48 h and then analyzed by flow cytometry. PNU 282,987 led to an increase in the (a) CD11b and (b) CD11c expression. (c): All tested compounds led to a decrease in TLR4 expression. (d): Macrophages stimulation with hypaphorine and 6ID promoted an increase in CD86 expression. Results obtained in three independent experiments on macrophages from different donors and presented as mean ± SD. One-way ANOVA tests with Tukey post hoc test: * p ˂0.05, ** p ˂ 0.01, **** p < 0.0001 in comparison with untreated cells.

[2] = test system: TLR4 expression on macrophages; assay: Flow cytometry of TLR4 receptor on macrophages; assay type: cell-based, human; settings: 48 h incubation
Method: The effect of the above-listed compounds on the expression of the TLR4 receptor and the CD86 protein was studied by flow cytometry after 48 h incubation with macrophages. The interaction of bacterial endotoxins with the TLR4 receptor is known to activate the expression of several pro-inflammatory cytokine genes, while the co-stimulatory molecule CD86 plays an important role in […] inflammatory responses. A decrease in the expression of the TLR4 receptor was observed under the action of all tested compounds (Figure 4c,e), the rank order of these TLR4-suppressing effects was as follows: hypaphorine (14%) < PNU 282,987 (21%) < 6ID (31%).
as §2, §3

[3] = test system: carrageenan-induced inflammation; assay: Carrageenan-induced inflammation test; assay type: in vivo, ICR mice; settings: for oedema (paw diameter): 0.5 mg/kg (hypaphorine and 6ID also 1 mg/kg); for analgesia in von Frey test: versus vehicle
Method: Subplantar 1% carrageenan injections in a volume of 30 μL into the right hind paw were carried out to generate an inflammation model in mice. The paw volume was measured beforehand using an electronic calliper. The maximum effect of the introduction of carrageenan was observed after 3 h. […] The control group was treated with saline (0.9% NaCl). Two hours after the drug administration (total 3 h from carrageenan injection), the size of the pad of the right hind paw was measured, the von Frey test and paw pressure analgesimeter pain sensitivity assessment were performed.
Carrageenan inflammation was induced by injecting 30 μL of a 1% carrageenan suspension (Sigma-Aldrich, lot #SLBK3896V) into the subplantar surface of the ICR mice hind paw. The oedema degree of the carrageenan-induced paw was evaluated using an electronic calliper by the volume difference of the animal’s right hind paw after (3 h from carrageenan injection) and before being hurt by carrageenan.
[…] The control group was treated with saline (0.9% NaCl).
Antinociceptive testing was performed 2 h after the drug administration (3 h after carrageenan injection).
Nociceptive testing was performed by utilizing the von Frey test and Paw pressure test.
The animals were placed in 20 cm × 20 cm Plexiglas boxes equipped with a metallic mesh floor. Animals were allowed to habituate themselves to their environment for 15 min before the test. […] The paw sensitivity threshold was defined as the minimum force required to elicit a robust and immediate withdrawal reflex of the paw. Spontaneous movements associated with locomotion were not considered as a withdrawal response. Measurements were repeated 3 times and the final value was obtained by averaging the 3 measurements.
Mechanical hyperalgesia was measured as a paw withdrawal response to a gradual increase of mechanical pressure applied by the Rodent pinchers—analgesia meter (model BIO-RP-M; BioSeb, Vitrolles, France). The influence of stimulation on each hind paw was recorded three times. The maximum force applied to the paw was recorded as the grams (g) of force on the dynamometer.

ERK 1/2 phosphorylation = assay: ERK1/2 phosphorylation in LPS-stimulated macrophages (flow cytometry); assay type: cell-based, human; settings: compound 1 h, then LPS 3 h; control MFI 194; listed as 6ID
Method: as §1, §2
Figure 5 Effects of the analyzed compounds on signaling pathways in LPS-stimulated macrophages. Cells were treated with PNU 282987, hypaphorine, or 6-iodohypaphorine methyl ester (6ID) for 1 h and then stimulated with LPS for 3 h. Phosphorylated ERK1/2 and STAT3 were quantified by flow cytometry with specific antibodies. […] (c): Representative histogram showing the increase in ERK 1/2 phosphorylation in comparison to control. The numbers in the histograms show the MFI ± SD (n = 3). MFI—geometrical mean fluorescence intensity. One-way ANOVA tests with Tukey post hoc test: * p ˂ 0.05, ** p ˂ 0.01, *** p < 0.001 in comparison with untreated cells. […]

Row | SMILES | STAT3 phosphorylation, MFI (STAT3 phosphorylation) | increase in CD11c protein expression ([1]; listed as 6ID) | decrease in the expression of the TLR4 receptor [2] | oedema (paw diameter) ([3]; mice, 2 h after drug, listed as 6ID) | analgesia in von Frey test ([3]; mice, 2 h after drug) | carrageenan-induced allodynia and hyperalgesia ([3]; rodents, doses 0.1 and 0.5 mg/kg) | ERK 1/2 phosphorylation, MFI (ERK 1/2 phosphorylation) | oedema (paw diameter) ([3]; mice, 2 h after drug, listed as 6ND) | increase in CD11c protein expression [1] | analgesia in paw pressure test (mechanical hyperalgesia) ([3]; mice, 2 h after drug) | oedema (paw diameter) ([3]; mice, 2 h after drug) | oedema (paw diameter) ([3]; mice, 2 h after drug, listed as synthetic hypaphorine)
1 | COC(=O)[C@@H](Cc1c[nH]c2cc(I)ccc12)[N+](C)(C)C [Compound 1, (D)-6-iodohypaphorine methyl ester] | 58 | not statistically significant; also recorded: but not 6ID or hypaphorine, leads to a significant increase | 31% | marked decrease in paw diameter at doses 0.5 and 1 mg/kg | significant analgesia | decreased carrageenan-induced allodynia and hyperalgesia | 274 | – | – | – | – | –
2 | COC(=O)C(Cc1c[nH]c2cc([N+](=O)[O-])ccc12)[N+](C)(C)C (stereo not shown) [Compound 5, methyl ester of 6-nitrohypaphorine] | – | – | – | – | significant analgesia | – | – | moderate anti-oedemic effect at a dose of 0.5 mg/kg | – | – | – | –
3 | C[N+](C)(C)[C@H](Cc1c[nH]c2ccccc12)C(=O)[O-] [Compound 16, L-hypaphorine, reference compound] | increase in the phosphorylation | – | 14% | – | significant analgesia | – | – | – | but not 6ID or hypaphorine, leads to a significant increase | strong evidence of analgesia in algesimeter and von Frey tests | only a tendency to decrease oedema, not statistically significant | No significant effect
